The record followed here is PubChem BioAssay (NCI).

Some test systems named below: NCI-H522 lung; LOX IMVI melanoma; U251 CNS; SR leukemia; SNB-75 CNS; HOP-62 NSCLC; COLO 205 colon; SF-268 CNS; RXF 393 renal; SN12C renal.
Holding throughout (experiment): DTP human tumour cell line panel, 48 h

Several values for one entry are separate records, joined by “and”; a condition that tells them apart may be missing. Equal values may be shown once.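 Where inhibition never reached the appropriate level, the endpoint shown equals the highest concentration tested. Otherwise, values were interpolated linearly from a five-concentration, 48-hour dose response in 96-well plates. GI50 = concentration required for 50% inhibition of growth. At the TGI there is no net growth.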

`O=S(=O)([O-])c1ccc2c(c1)-c1nc-2nc2[n-]c(nc3nc(nc4[n-]c(n1)c1ccc(S(=O)(=O)[O-])cc41)-c1cc(S(=O)(=O)[O-])ccc1-3)c1ccc(S(=O)(=O)[O-])cc21.[Cu+2].[Na+]`: the GI50 with NCI-H522 lung was 44.8 µM; in the assay with LOX IMVI melanoma, 3.29 µM; with U251 CNS, 40.3 µM; in the assay with SR leukemia, 11.2 µM; with SNB-75 CNS, over 67.3 µM; in the assay with HOP-62 NSCLC, over 100 µM. The GI50 with COLO 205 colon was 6.96 µM; in the assay on SF-268 CNS, over 69.8 µM; in the assay with RXF 393 renal, 49.4 µM; in the assay with SN12C renal, over 100 µM. Moreover, the TGI in the assay on NCI-H522 lung, with LOX IMVI melanoma, in the assay on U251 CNS, with SR leukemia, with SNB-75 CNS and with HOP-62 NSCLC was over 100 µM in each case. Besides, the TGI in the assay on COLO 205 colon is over 62 µM; in the assay on SF-268 CNS it was over 100 µM; in the assay with RXF 393 renal, over 100 µM; in the assay with SN12C renal, over 100 µM.

`CC(C)c1ccc(Nc2ccc3c(OCCCN4CCN(C)CC4)cccc3n2)cc1`: the GI50 was 19.9 µM in the assay with NCI-H522 lung; 1.86 µM in the assay with LOX IMVI melanoma; 3.28 µM with U251 CNS; 2.85 µM with SR leukemia; 12.8 µM in the assay with SNB-75 CNS; 12 µM in the assay on HOP-62 NSCLC. The GI50 was 1.97 µM with COLO 205 colon, 12.2 µM with SF-268 CNS, 7.28 µM with RXF 393 renal and 15.6 µM in the assay with SN12C renal. The TGI in the assay on NCI-H522 lung stood at 39.7 µM; in the assay with LOX IMVI melanoma, 3.54 µM; in the assay on U251 CNS it was 10.3 µM; in the assay on SR leukemia, 10.7 µM; in the assay with SNB-75 CNS, 30 µM; with HOP-62 NSCLC, 26.4 µM. Moreover, the TGI in the assay with COLO 205 colon was 3.96 µM; with SF-268 CNS, 27.4 µM; with RXF 393 renal, 22.4 µM; in the assay on SN12C renal, 31.9 µM.

Take `CC[C@]12C=CCN3CC[C@@]4(c5ccc(OC)cc5N(C)[C@H]4[C@@](O)(C(=O)OC)[C@@H]1OC(=O)CCC[P+](c1ccccc1)(c1ccccc1)c1ccccc1)[C@@H]32`: the GI50 with NCI-H522 lung is 0.247 µM and 0.342 µM; with LOX IMVI melanoma, 0.923 µM and 0.662 µM; in the assay with U251 CNS, 0.487 µM and 0.336 µM; in the assay with SR leukemia it was 0.379 µM and 0.438 µM; in the assay on SNB-75 CNS it was 0.554 µM and 0.218 µM; with HOP-62 NSCLC it was 1.84 µM and 2.18 µM. For the same compound, the GI50 with COLO 205 colon was 0.161 µM and 0.208 µM; in the assay on SF-268 CNS it was 0.933 µM and 0.455 µM; in the assay on RXF 393 renal it was 0.736 µM and 1.53 µM; with SN12C renal, 0.719 µM and 0.491 µM. The total growth inhibition concentration (TGI) in the assay on NCI-H522 lung was 5.37 µM and 1.41 µM; in the assay on LOX IMVI melanoma it was 6 µM and 2.18 µM; in the assay with U251 CNS, 6.59 µM and 2.64 µM; with SR leukemia it was 7.07 µM and 1.97 µM; with SNB-75 CNS, 3.58 µM and 1.23 µM; with HOP-62 NSCLC, 7.71 µM and 7.08 µM. The TGI with COLO 205 colon was 0.611 µM and 0.454 µM; with SF-268 CNS, 6.84 µM and 2.65 µM; with RXF 393 renal, 2.94 µM and 4.34 µM; in the assay with SN12C renal, 5.45 µM and 6.66 µM.

With `O=C(O/N=C1/CCCC/C1=C\c1ccccc1)c1ccccc1`, the TGI in the assay with NCI-H522 lung is over 100 µM; in the assay with LOX IMVI melanoma, 88.8 µM; in the assay with U251 CNS it was over 100 µM; in the assay with SR leukemia it was over 100 µM; in the assay on SNB-75 CNS, over 100 µM; in the assay on HOP-62 NSCLC, over 100 µM. Also, the TGI in the assay on COLO 205 colon, in the assay on SF-268 CNS, in the assay with RXF 393 renal and in the assay on SN12C renal was over 100 µM in each case.

Take `O=S(=O)(Nc1cc(F)cc(Cl)c1)c1ccc(-c2cnc(C3CC3)o2)cc1`: the GI50 in the assay on NCI-H522 lung is 1.09 µM; with LOX IMVI melanoma it was 2.5 µM; with U251 CNS, 1.55 µM; in the assay on SR leukemia it was 0.462 µM; in the assay with SNB-75 CNS it was 0.344 µM; in the assay with HOP-62 NSCLC it was 1.56 µM. Moreover, the GI50 was 1.59 µM with COLO 205 colon, 6.47 µM with SF-268 CNS, 1.07 µM in the assay with RXF 393 renal and 3.49 µM with SN12C renal. For the same compound, the TGI with NCI-H522 lung is 16.5 µM; in the assay on LOX IMVI melanoma, 20.8 µM; with U251 CNS it was 15.2 µM; with SR leukemia, over 100 µM; in the assay with SNB-75 CNS it was 3.33 µM; with HOP-62 NSCLC, 17.7 µM. Further, the TGI with COLO 205 colon was determined as 11.8 µM; with SF-268 CNS, 26.2 µM; in the assay on RXF 393 renal it was 6.93 µM; in the assay on SN12C renal it was 17.4 µM.

With `CC/C(=C(/c1ccc(OCCN(C)C)cc1)c1ccc(OC(=O)CCCCC(=O)c2c(C)[nH]c(/C=C3\N=C(c4ccc[nH]4)C=C3OC)c2C)cc1)c1ccccc1`, the GI50 in the assay on NCI-H522 lung was 3.59 µM; in the assay with LOX IMVI melanoma it was 2.05 µM; in the assay with U251 CNS it was 5.22 µM; with SR leukemia, 3.05 µM; in the assay with SNB-75 CNS, 8.17 µM; in the assay with HOP-62 NSCLC it was 12.3 µM. In addition, the GI50 is 10.7 µM with COLO 205 colon, 7.79 µM in the assay with SF-268 CNS, 3.86 µM with RXF 393 renal and 5.39 µM in the assay with SN12C renal. Besides, the TGI worked out at 14.3 µM in the assay on NCI-H522 lung; 5.14 µM in the assay with LOX IMVI melanoma; 18.3 µM with U251 CNS; 21 µM with SR leukemia; 23.2 µM with SNB-75 CNS; 24.7 µM in the assay with HOP-62 NSCLC. For the same compound, the TGI with COLO 205 colon came to 23.2 µM; with SF-268 CNS it was 30 µM; in the assay on RXF 393 renal, 17.7 µM; in the assay on SN12C renal, 21.4 µM.

In the case of `O=C(CCCn1ccnc1[N+](=O)[O-])NCCn1cncc1[N+](=O)[O-]`, the TGI in the assay with NCI-H522 lung, in the assay with LOX IMVI melanoma, in the assay on U251 CNS, with SR leukemia, with SNB-75 CNS and with HOP-62 NSCLC was over 100 µM each time. Besides, the TGI in the assay on COLO 205 colon, in the assay with SF-268 CNS, in the assay on RXF 393 renal and in the assay with SN12C renal was over 100 µM each time.

`CC(=O)OC1Oc2ccccc2-c2oc(=O)c(-c3cc(=O)oc4cc(O)ccc34)cc21` (stereo not given): the GI50 in the assay with NCI-H522 lung is 16.9 µM; with LOX IMVI melanoma, 17.8 µM; in the assay on U251 CNS it was 24 µM; in the assay on SR leukemia it was 2.65 µM; in the assay on SNB-75 CNS, 22.3 µM; with HOP-62 NSCLC, 20.8 µM. The GI50 is 18.2 µM with COLO 205 colon, 26.2 µM in the assay with SF-268 CNS, 4.5 µM in the assay on RXF 393 renal and 30.9 µM in the assay on SN12C renal. The TGI in the assay on NCI-H522 lung was found to be 43 µM; in the assay on LOX IMVI melanoma, 37.5 µM; in the assay on U251 CNS, 65.3 µM; with SR leukemia, 6.5 µM; in the assay with SNB-75 CNS, 72.2 µM; with HOP-62 NSCLC it was 55.2 µM. The TGI with COLO 205 colon was 51.2 µM; in the assay on SF-268 CNS, 80.3 µM; in the assay with RXF 393 renal, 20.6 µM; in the assay on SN12C renal, over 100 µM.

What is called GI50 is the concentration that inhibits growth by half. What is called TGI is the concentration giving total growth inhibition. A lower TGI goes with greater sensitivity of the cells.
